This passage reports Activity results from ChEMBL document CHEMBL1275561, “In vitro activities of doripenem, a new broad-spectrum carbapenem, against recently collected clinical anaerobic isolates, with emphasis on the Bacteroides fragilis group” (2008).

In this test the test system is Clostridium perfringens. Kind of test: Antimicrobial activity against Clostridium perfringens assessed as resistant isolates by agar dilution method. The test is classed as functional. A general note: In agar dilution, organisms are placed on agar that contains the substance at set levels.

`C[C@@H](O)[C@H]1C(=O)N2C(C(=O)O)=C(S[C@@H]3CN[C@H](C(=O)Nc4cccc(C(=O)O)c4)C3)[C@H](C)[C@H]12`: the Activity came out at 0%. Regarding `CC1(C)S[C@@H]2[C@H](NC(=O)[C@H](N)c3ccccc3)C(=O)N2[C@H]1C(=O)O` [AMPICILLIN], the Activity was found to be 0%. Next, `CO[C@@]1(NC(=O)Cc2cccs2)C(=O)N2C(C(=O)O)=C(COC(N)=O)CS[C@@H]21` [CEFOXITIN]: 0%. Next, `CCC[C@@H]1C[C@@H](C(=O)N[C@@H]([C@H]2O[C@H](SC)[C@H](O)[C@@H](O)[C@H]2O)[C@H](C)Cl)N(C)C1` [CLINDAMYCIN]: 0%; `C[C@@H](O)[C@H]1C(=O)N2C(C(=O)O)=C(S[C@@H]3CN[C@H](CNS(N)(=O)=O)C3)[C@H](C)[C@H]12` [DORIPENEM]: 0%; `C[C@@H](O)[C@H]1C(=O)N2C(C(=O)O)=C(SCCNC=N)C[C@H]12` [IMIPENEM ANHYDROUS]: 0%. Next, `CC(=O)NC[C@H]1CN(c2ccc(N3CCOCC3)c(F)c2)C(=O)O1` [LINEZOLID]: 0%. For `C[C@@H](O)[C@H]1C(=O)N2C(C(=O)O)=C(S[C@@H]3CN[C@H](C(=O)N(C)C)C3)[C@H](C)[C@H]12` [MEROPENEM], the Activity was found to be 0%. As for `Cc1ncc([N+](=O)[O-])n1CCO` [METRONIDAZOLE], the figure is 7.8%. Regarding `CCN1CCN(C(=O)N[C@@H](C(=O)N[C@@H]2C(=O)N3[C@@H]2SC(C)(C)[C@@H]3C(=O)O)c2ccccc2)C(=O)C1=O` [PIPERACILLIN], the Activity is listed as 0%. Next, `CN[C@H](CC(C)C)C(=O)N[C@H]1C(=O)N[C@@H](CC(N)=O)C(=O)N[C@H]2C(=O)N[C@H]3C(=O)N[C@H](C(=O)N[C@H](C(=O)O)c4cc(O)cc(O)c4-c4cc3ccc4O)[C@H](O)c3ccc(c(Cl)c3)Oc3cc2cc(c3O[C@@H]2O[C@H](CO)[C@@H](O)[C@H](O)[C@H]2O[C@H]2C[C@](C)(N)[C@H](O)[C@H](C)O2)Oc2ccc(cc2Cl)[C@H]1O` [VANCOMYCIN]: 0%.
